From patent US8343513B2, “Prevention of molecular weight reduction of the polymer, impurity formation and gelling in polymer compositions” (Oakwood Laboratories, LLC, priority 2003, dated 2013)
Where a SMILES comes first, the peptide text is derived from it. [ ]: non-standard residue; d: D form. The star is where a group is joined. dPhe(4-Cl) = N[C@H](Cc1ccc(Cl)cc1)C(=O)O; Nicotinoyl(6-NH2) = Nc1ccc(C(=O)*)cn1; d2Nal = N[C@H](Cc1ccc2ccccc2c1)C(=O)O; Lys(iPr) = CC(C)NCCCC[C@H](N)C(=O)O; d3Pal = N[C@H](Cc1cccnc1)C(=O)O; Picolinoyl = O=C(c1ccccn1)*; dOrn = NCCC[C@@H](N)C(=O)O

How the values were obtained:
[1] = cited from earlier work
[2] = Orntide solubility and gelling in solvents and dispersed phase; type: physicochemical
Excerpt: However, most of the GnRH analogs are soluble only at certain concentrations (at very low concentrations of antagonists and moderate concentrations of agonists) beyond which these analogs pose solubility and gelling problems when dissolved in these solvents.
The stability was followed for a day.

[3] = Screening of octreotide related substance formation with polymers and acid additives, 40° C. 24 and 48 hour; type: physicochemical; conditions: octreotide with polymer in DCM/methanol

SMILES | related substances formation in words [3] | other results
O=C(O)C(O)CO (stereo not shown) [glyceric acid] | – | pKa [1]: 3.25
CC(=O)N[C@H](Cc1ccc2ccccc2c1)C(=O)N[C@H](Cc1ccc(Cl)cc1)C(=O)N[C@H](Cc1cccnc1)C(=O)N[C@@H](CO)C(=O)N[C@@H](CCCCNC(=O)c1ccccn1)C(=O)N[C@H](CCCNC(=O)c1ccc(N)nc1)C(=O)N[C@@H](CC(C)C)C(=O)N[C@@H](CCCCNC(C)C)C(=O)N1CCC[C@H]1C(=O)N[C@H](C)C(N)=O [orntide] (Ac-[d2Nal][dPhe(4-Cl)][d3Pal]SK(Picolinoyl)[dOrn](Nicotinoyl(6-NH2))L[Lys(iPr)]P[dA]-NH2) | – | solubility ([2]; aqueous media, even at a pH lower than 5): < 5000 µg/mL
O=C(O)CO [glycolic acid] | prevented the related substances formation | –
CC(=O)N[C@H](Cc1ccc2ccccc2c1)C(=O)N[C@H](Cc1ccc(Cl)cc1)C(=O)N[C@H](Cc1cccnc1)C(=O)N[C@@H](CO)C(=O)N[C@@H](CCCCNC(=O)c1ccccn1)C(=O)N[C@H](CCCNC(=O)c1ccc(N)nc1)C(=O)N[C@@H](CC(C)C)C(=O)N[C@@H](CCCCNC(C)C)C(=O)N1CCC[C@H]1C(=O)N[C@H](C)C(N)=O [PPL-ORN-9902] (Ac-[d2Nal][dPhe(4-Cl)][d3Pal]SK(Picolinoyl)[dOrn](Nicotinoyl(6-NH2))L[Lys(iPr)]P[dA]-NH2) | – | time to gel ([2]; 84 mg orntide acetate, 100 mg glacial acetic acid, 130 mg methanol, 1.28 g methylene chloride, warmed to 40° C.): ≤ 30 min
CC(=O)O [glacial acetic acid] | less efficient than lactic and glycolic acids | –
CC(O)C(=O)O (stereo not shown) [lactic acid] | reduced the related substances and made comparable to the control | –
CCCCCCCCCCCCCCCCCC(=O)O [stearic acid] | less efficient than lactic and glycolic acids | –
